Measured values as given in paper PMC12134183, “Structural analysis of full-length human transmembrane protein 94 argues against its classification as a P-type Mg^2+ ATPase” (Cell Discovery, 2025).

Biological target: T1, TMEM94 (Homo sapiens, UniProt Q12767)
T1 construct: full-length, purified in detergent micelles; TMD extends to residue 1356; N-glycosylated
T1 sequence (Q12767 1-1356): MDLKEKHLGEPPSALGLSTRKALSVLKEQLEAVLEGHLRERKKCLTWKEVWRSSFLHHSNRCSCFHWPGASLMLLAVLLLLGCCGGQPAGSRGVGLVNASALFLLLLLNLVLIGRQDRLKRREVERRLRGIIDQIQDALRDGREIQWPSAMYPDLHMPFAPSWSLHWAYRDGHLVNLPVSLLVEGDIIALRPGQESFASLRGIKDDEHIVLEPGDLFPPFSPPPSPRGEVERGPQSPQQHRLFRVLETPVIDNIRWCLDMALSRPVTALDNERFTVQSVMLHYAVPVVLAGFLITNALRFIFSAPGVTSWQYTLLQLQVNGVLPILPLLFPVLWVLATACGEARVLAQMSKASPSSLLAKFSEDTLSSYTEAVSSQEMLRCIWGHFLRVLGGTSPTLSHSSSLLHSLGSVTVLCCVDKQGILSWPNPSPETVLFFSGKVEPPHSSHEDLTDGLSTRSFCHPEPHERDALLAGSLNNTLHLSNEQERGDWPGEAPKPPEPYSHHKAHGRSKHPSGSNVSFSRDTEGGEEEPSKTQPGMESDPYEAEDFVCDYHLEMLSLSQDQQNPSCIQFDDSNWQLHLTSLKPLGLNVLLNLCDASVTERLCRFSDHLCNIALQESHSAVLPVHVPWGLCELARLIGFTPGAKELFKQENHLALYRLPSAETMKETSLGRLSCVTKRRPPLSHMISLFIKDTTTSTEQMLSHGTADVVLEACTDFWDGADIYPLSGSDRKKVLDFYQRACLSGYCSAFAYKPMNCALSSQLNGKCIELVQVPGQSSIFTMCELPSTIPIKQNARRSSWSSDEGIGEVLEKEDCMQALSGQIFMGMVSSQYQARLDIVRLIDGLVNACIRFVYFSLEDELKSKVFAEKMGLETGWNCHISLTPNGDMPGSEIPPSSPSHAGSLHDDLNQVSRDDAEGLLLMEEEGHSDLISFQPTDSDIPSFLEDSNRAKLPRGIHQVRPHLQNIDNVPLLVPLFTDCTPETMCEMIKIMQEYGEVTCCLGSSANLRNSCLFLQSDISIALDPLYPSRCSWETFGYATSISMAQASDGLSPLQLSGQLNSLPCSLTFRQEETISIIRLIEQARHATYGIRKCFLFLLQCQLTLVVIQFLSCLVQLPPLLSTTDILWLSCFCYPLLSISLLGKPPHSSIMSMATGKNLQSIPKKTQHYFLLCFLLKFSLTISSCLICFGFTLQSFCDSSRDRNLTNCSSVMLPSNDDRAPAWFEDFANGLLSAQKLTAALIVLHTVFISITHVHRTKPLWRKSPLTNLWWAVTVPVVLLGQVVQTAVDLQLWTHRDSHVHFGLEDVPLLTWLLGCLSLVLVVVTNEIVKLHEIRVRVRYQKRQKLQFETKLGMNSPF
Assay: microscale thermophoresis (MST)
Format: binding

## Nc1ncnc2c1ncn2[C@@H]1O[C@H](COP(=O)(O)OP(=O)(O)CP(=O)(O)O)[C@@H](O)[C@H]1O [AMPPCP]
  Kd: 5.48 ± 1.41 µM
